Test results taken from patent US6492426B1, “Use of 1-aminoindan derivatives for treatment of mania in bipolar mood disorder” (priority 1999, dated 2002).
Values joined by “and” are separate entries in the source; they are usually repeats but may differ in a detail not shown here. Equal entries are not always repeated.

Tested on: amphetamine-induced hyperactivity in rats
Assay: amphetamine-induced hyperactivity model of mania in rats (automated activity monitors)
Format: in vivo, Sprague Dawley rats
Description: Evaluation of possible anti-bipolar effects of compounds 1 to 4 was effected by an amphetamine-induced hyperactivity model of mania in rats. Each of the compounds was examined in a separate experiment and compared with a control group, treated with the same dose of amphetamine.
Twenty Sprague Dawley rats, weighing 200-250 g served for each of the four (4) experiments. Rats were housed in a colony room with constant temperature (22° C.), 12 h light/dark cycle and free access to food and water. Each experiment consisted of two groups (n=10 per group), one group was treated with the compound (1 to 4) and the other with vehicle solution. In experiments 1-4, the drugs were administered intraperitoneally (IP). All experimental procedures were conducted during the light phase of the light/dark cycle.
Amphetamine (0.5 mg/kg, sub-cutaneous (s.c.), diluted in de-ionized water) was injected into all rats (both groups of each experiment) immediately prior to behavioral testing. In experiments 1 to 4, compounds (R)-N-acetyl aminoindan (1); (S)-N-indanyl glycinamide HCl (2); (rac)-N-(2-aminoacetyl)-1-aminoindan HCl (3); and (S)-N-formyl aminoindan (4) were injected twice intraperitoneally (IP) at a dose of 75 mg/kg, 19 h and 3 h prior to behavioral testing in experiments. All compounds were suspended in a 5% methyl cellulose solution. The vehicle solution was administered to the control animals.
Immediately after amphetamine injection, rats were placed in automated activity monitors and their activity levels were scored every 10 minutes in the 30 minute time span for experiments 1 to 4. Activity scores included separate measurements of horizontal (locomotion) and of vertical (rearing) activity.
Repeated ANOVA measurements were used to examine the effects of compounds 1 to 4 on locomotor and on vertical activity. One factor measured the treatment of the rats using compounds 1 to 4 or the control vehicle; the repeated measure factor was time (three 10 minute intervals). Post hoc LSD (least significant difference) tests were used to determine whether significant differences occurred in different time periods, where relevant.

[1] = 75 mg/kg IP, 19 h and 3 h before testing, result in words
[2] = group mean n=10, 75 mg/kg IP twice, amphetamine 0.5 mg/kg s.c., cumulative to 20 min
[3] = group mean n=10, 75 mg/kg IP twice, amphetamine 0.5 mg/kg s.c., cumulative to 30 min
[4] = group mean n=10, 75 mg/kg IP twice, amphetamine 0.5 mg/kg s.c., first 10 min
[5] = group mean n=10, 75 mg/kg IP twice, amphetamine 0.5 mg/kg s.c., second 10 min interval
[6] = group mean n=10, 75 mg/kg IP twice, amphetamine 0.5 mg/kg s.c., third 10 min interval
[7] = individual rat, 75 mg/kg IP twice, amphetamine 0.5 mg/kg s.c., cumulative to 20 min, HCl
[8] = individual rat, 75 mg/kg IP twice, amphetamine 0.5 mg/kg s.c., cumulative to 30 min, HCl
[9] = individual rat, 75 mg/kg IP twice, amphetamine 0.5 mg/kg s.c., non cumulative, second 10 min interval, HCl
[10] = individual rat, 75 mg/kg IP twice, amphetamine 0.5 mg/kg s.c., non cumulative, third 10 min interval, HCl

Cl.NCC(=O)N[C@H]1CCc2ccccc21 [Compound 2, (S)-N-indanyl glycinamide HCl]
Effect on amphetamine-induced locomotor activity versus control (ANOVA) [1]: did not have a significant effect | Effect on amphetamine-induced vertical activity versus control (ANOVA) [1]: significantly increased the level of vertical activity | Effect on activity levels of rats (summary) (75 mg/kg IP, amphetamine-treated rats, result in words): surprisingly increased activity | Anti-manic potential from the tested model (conclusion) (based on the tested model and doses, result in words): does not show anti-manic potential | Locomotor activity, 20 min, mean [2]: 1277.9 counts | Vertical activity, 20 min, mean [2]: 96.3 counts | Locomotor activity, 30 min, mean [3]: 1740.5 counts | Vertical activity, 30 min, mean [3]: 125 counts | Locomotor activity, 10 min, mean [4]: 626 counts | Vertical activity, 10 min, mean [4]: 49.3 counts | Locomotor activity, 20-10 min, mean [5]: 651.9 counts | Vertical activity, 20-10 min, mean [5]: 47 counts | Locomotor activity, 30-20 min, mean [6]: 462.6 counts | Vertical activity, 30-20 min, mean [6]: 28.7 counts | Locomotor activity, 10 min (individual rat, 75 mg/kg IP twice, 19 h and 3 h before testing, amphetamine 0.5 mg/kg s.c., first 10 min, HCl): 531 counts and 603 counts and 604 counts and 619 counts and 663 counts (2×) and 616 counts and 670 counts and 643 counts and 648 counts | Locomotor activity, 20 min [7]: 1096 counts and 1197 counts and 1334 counts and 1140 counts and 1525 counts and 1508 counts and 1366 counts and 1272 counts and 1325 counts and 1016 counts | Vertical activity, 20 min [7]: 51 counts and 133 counts and 62 counts and 84 counts and 101 counts and 236 counts and 118 counts and 50 counts and 70 counts and 58 counts | Locomotor activity, 30 min [8]: 1547 counts and 1606 counts and 1964 counts and 1598 counts and 1908 counts and 2038 counts and 1670 counts and 1608 counts and 2047 counts and 1419 counts | Vertical activity, 30 min [8]: 75 counts and 168 counts and 98 counts and 96 counts and 104 counts and 321 counts and 126 counts and 58 counts and 116 counts and 88 counts | Vertical activity, 10 min (individual rat, 75 mg/kg IP twice, amphetamine 0.5 mg/kg s.c., first 10 min, HCl): 32 counts and 82 counts and 31 counts and 38 counts (3×) and 95 counts and 66 counts and 30 counts and 43 counts | Locomotor activity, 20-10 min [9]: 565 counts and 594 counts and 730 counts and 521 counts and 862 counts and 892 counts and 696 counts and 629 counts and 677 counts and 353 counts | Vertical activity, 20-10 min [9]: 19 counts and 51 counts and 31 counts and 46 counts and 63 counts and 141 counts and 52 counts and 12 counts and 40 counts and 15 counts | Locomotor activity, 30-20 min [10]: 451 counts and 409 counts and 630 counts and 458 counts and 383 counts and 530 counts and 304 counts and 336 counts and 722 counts and 403 counts | Vertical activity, 30-20 min [10]: 24 counts and 35 counts and 36 counts and 12 counts and 3 counts and 85 counts and 8 counts (2×) and 46 counts and 30 counts
